The results in this text go back to patent publication US20180369268A1, “METHODS FOR IDENTIFYING INHIBITORS OF "STIMULATOR OF INTERFERON GENE"- DEPENDENT INTERFERON PRODUCTION” (ADURO BIOTECH, INC., priority 2015, published 2018).

In one assay the target is T1, hSTING HAQ allele (Homo sapiens, UniProt Q86WV6, G230A/H232R/R293Q).
T1 construct: DNA encoding amino acids 140-379 (amino acid numbering corresponding to Swiss Prot Q86WV6); 6xHIS-SUMO (with TEV site) (N, cleaved yes); made in house; host or cells: Rosetta2 (DE3) E. coli
T1 sequence (Q86WV6 140-379 G230A/H232R/R293Q): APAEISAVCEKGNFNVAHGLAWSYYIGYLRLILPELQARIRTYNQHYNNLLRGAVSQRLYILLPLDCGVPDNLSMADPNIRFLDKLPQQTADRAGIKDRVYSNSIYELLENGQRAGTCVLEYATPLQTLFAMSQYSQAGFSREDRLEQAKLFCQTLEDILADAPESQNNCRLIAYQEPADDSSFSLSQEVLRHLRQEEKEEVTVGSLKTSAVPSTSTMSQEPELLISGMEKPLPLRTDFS
As to the kind of experiment: Differential scanning fluorometry (DSF) Tm shift with purified STING AA140-379. Format: binding. To be noted: DSF, ligand 1 mM, 1 mg/ml STING AA140-379; read-out: hSTING Tm Shift HAQ. An excerpt:
DNA encoding amino acids 140-379 (amino acid numbering corresponding to Swiss Prot Q86WV6) was amplified from plasmids containing the full length sequence of human STING alleles via polymerase chain reaction with the following primers: forward […] (SEQ ID NO: 9) and reverse […] (SEQ ID NO: 10). STING variant alleles were assigned according to Yi, et al, (2013), PLoS One, 8(10), e77846 (DOI: 10.1371/journal.pone.0077846. PCR products were cloned into bacterial expression vector encoding a N-terminal hexa-histidine affinity tag (6×HIS) followed by a small ubiquitin-like modifier (SUMO) solubility sequence (Butt, et al, (2005) Protein expression and purification 43.1, 1-9) and tobacco etch virus protease cleavage site (TEV) using ligation independent cloning (Aslanidis, et al, (1990) Nucleic acids research, 18.20, 6069-6074).
Plasmids encoding 6×HIS-SUMO-TEV-STING amino acids 140-379 were transformed into Rosetta2 (DE3) E. coli cells (EMD Millipore) for protein expression. Cells were grown in lysogeny broth at 37° C. until a […] absorbance of 0.6 was reached. Cells were then transferred to 18° C. and protein expression was induced overnight by the addition of isopropyl β-D-1-thiogalactopyranoside to the media at a concentration of 0.25 mM. Cells were harvested by centrifugation at 6,000 times gravity for 10 minutes. Cell pellets were re-suspended on ice in a buffer containing 50 mM Tris hydrochloride (Tris-HCl) pH 7.5, 500 mM sodium chloride (NaCl), 20 mM imidazole, 10% glycerol, 1 mM tris(2-carboxyethyl)phosphine hydrochloride (TCEP) and protease inhibitor tablet (Pierce) (Buffer A). Cells were lysed using an S-450D sonifier (Emmerson industrial) on ice. Cell lysate was centrifuged at 15,000 times gravity for 30 minutes at 4° C. Soluble material was applied to nickel-nitrilotriacetic acid (Ni-NTA) coupled Sepharose CL-6B (Qiagen) for 1 hour with gentle rocking at 4° C. After transfer to a gravity flow poly-prep column (Bio-Rad), resin was washed extensively in buffer A. Protein was eluted from the column in a buffer containing 20 mM Tris-HCl pH 7.5, 150 mM NaCl, 300 mM imidazole, 10% glycerol and 0.5 mM TCEP. To remove the 6×HIS-SUMO tag eluted protein was mixed with TEV protease (Sigma) at a ratio of 1:250 (w:w) and dialyzed overnight against a buffer containing 20 mM Tris-HCl pH 7.5, 150 mM NaCl, 5 mM imidazole, 10% glycerol and 0.5 mM TCEP. TEV protease and 6×HIS-SUMO tags were depleted by the addition of Ni-NTA resin (Qiagen) to the sample, purified STING amino acids 140-379 was collected by removal of the resin using a poly-prep column STING AA140-379 was concentrated with a 10,000 Dalton molecular weight cutoff centrifuge concentrator (EMD Millipore) to a final concentration of approximately 10 mg/ml. Protein was aliquoted, flash frozen in liquid nitrogen and stored at −80° C. until use.
Differential scanning fluorometry (DSF) is a technique that measures the ability of ligands to bind to and stabilize purified proteins (Niesen, et al, (2007) Nature protocols 2.9, 2212-2221). The protein is heated in the presence of a dye that binds to and fluoresces in hydrophobic environments. The protein is thermally denatured by heating resulting in increased dye binding to the unfolded protein and fluorescence. The temperature midpoint (Tm) of a proteins denaturation is established by calculating the half maximal value of the denaturation curve. The temperature midpoint of the protein in the presence of a ligand is directly related to the affinity of the ligand for the protein and therefore its ability to stabilize the protein at higher temperatures.
DSF was performed in a 20 μL reaction comprising 20 mM Tris-HCl pH 7.5, 150 mM NaCl, 1:500 dilution of SYPRO Orange (Life Technologies), 1 mg/ml purified STING AA140-379 protein and ligand at a concentration of 1 mM. Wild type hSTING, HAQ allele hSTING and/or REF allele hSTING were used with scaffold molecules of the invention as listed in Table 2.
Turning to `Nc1nc(N)c2ncn([C@@H]3O[C@@H]4CO[P@@](=O)(S)O[C@H]5[C@@H](O)[C@H](n6cnc7c(N)nc(N)nc76)O[C@@H]5CO[P@@](=O)(S)O[C@H]4[C@H]3O)c2n1` [Compound 23, (2R,3R,3aS,5R,7aR,9R,10R,10aS,12R,14aR)-2,9-bis(2,6-diamino-9H-purin-9-yl)-3,10-dihydroxy-5,12-dimercaptooctahydro-2H,7H-difuro[3,2-d:3′,2′-j][1,3,7,9]tetraoxa[2,8]diphosphacyclododecine 5,12-dioxide], the ΔTm at 1000 µM stood at 15.1 °C.

For `Nc1nc(N)c2ncn([C@@H]3O[C@@H]4CO[P@@](=O)(S)O[C@H]5[C@@H](O)[C@H](n6cnc7c(N)nc(N)nc76)O[C@@H]5CO[P@](=O)(S)O[C@H]4[C@H]3O)c2n1` [Compound 23a, (2R,3R,3aS,5R,7aR,9R,10R,10aS,12S,14aR)-2,9-bis(2,6-diamino-9H-purin-9-yl)-3,10-dihydroxy-5,12-dimercaptooctahydro-2H,7H-difuro[3,2-d:3′,2′-j][1,3,7,9]tetraoxa[2,8]diphosphacyclododecine 5,12-dioxide], the ΔTm at 1000 µM amounted to 6.3 °C.

On to `CC(C)C(=O)Nc1nc2c(ncn2[C@@H]2O[C@@H]3CO[P@@](=O)(S)O[C@H]4[C@@H](F)[C@H](n5cnc6c(=O)[nH]c(NC(=O)C(C)C)nc65)O[C@@H]4CO[P@@](=O)(S)O[C@H]3[C@H]2F)c(=O)[nH]1` [Compound 32, N,N′-(((2R,3R,3aR,5R,7aR,9R,10R,10aR,12R,14aR)-3,10-difluoro-5,12-dimercapto-5,12-dioxidooctahydro-2H, 7H-difuro[3,2-d:3′,2′-j][1,3,7,9]tetraoxa[2,8]diphosphacyclododecine-2,9-diyl)bis(6-oxo-6,9-dihydro-1H-purine-9,2-diyl))bis(2-methylpropanamide)], for which the ΔTm at 1000 µM came to 11.5 °C.

Consider `Nc1ccn([C@@H]2O[C@@H]3CO[P@@](=O)(S)O[C@H]4[C@@H](F)[C@H](n5cnc6c(N)ncnc65)O[C@@H]4CO[P@@](=O)(S)O[C@H]3[C@H]2F)c(=O)n1` [Compound 37, 4-amino-1-((2R,3R,3aR,5R,7aR,9R,10R,10aR,12R,14aR)-9-(6-amino-9H-purin-9-yl) 3,10-difluoro-5,12-dimercapto 5,12-dioxidooctahydro-2H,7H-difuro[3,2-d:3′,2′-j][1,3,7,9]tetraoxa[2,8]diphosphacyclododecin-2-yl)pyrimidin-2(1H)-one], for which the ΔTm at 1000 µM worked out at 10.3 °C.

On to `Nc1ccn([C@@H]2O[C@@H]3CO[P@](=O)(S)O[C@H]4[C@@H](F)[C@H](n5cnc6c(N)ncnc65)O[C@@H]4CO[P@@](=O)(S)O[C@H]3[C@H]2F)c(=O)n1` [Compound 37a, 4-amino-1-((2R,3R,3aR,5R,7aR,9R,10R, 10aR,12S,14aR)-9-(6-amino-9H-purin-9-yl)-3,10-difluoro-5,12-dimercapto-5,12-dioxidooctahydro-2H,7H-difuro[3,2-d: 3′,2′-j][1,3,7,9]tetraoxa[2,8]diphosphacyclododecin-2-yl)pyrimidin-2(1H)-one], for which the ΔTm at 1000 µM came out at 6.4 °C.

With `CC(C)C(=O)Nc1nc2c(ncn2[C@@H]2O[C@@H]3CO[P@@](=O)(S)O[C@@H]4[C@H](O)[C@@H](CO[P@@](=O)(S)O[C@H]3[C@H]2O)O[C@H]4n2cnc3c(NC(=O)c4ccccc4)ncnc32)c(=O)[nH]1` [Compound 42, dithio-[RP, RP]-cyclic-[ibG(3′,5′)p-BzA(2′,5′)p]], the ΔTm at 1000 µM is 7.6 °C.

With `Nc1nc2c(ncn2[C@@H]2O[C@@H]3CO[P@](=O)(S)O[C@@H]4[C@H](O)[C@@H](CO[P@](=O)(S)O[C@H]3[C@H]2O)O[C@H]4n2cnc3c(N)ncnc32)c(=O)[nH]1` [Compound 43], the ΔTm at 1000 µM worked out at 10.5 °C.

Take `Nc1ncnc2c1ncn2[C@H]1O[C@H]2CO[P@](=O)(S)O[C@@H]3[C@H](O)[C@@H](n4cnc5c(N)ncnc54)O[C@H]3CO[P@](=O)(S)O[C@@H]2[C@@H]1O` [Compound 48, (2S,3S,3aR,5S,7aS,9S,10S,10aR,12S,14aS)-2,9-bis(6-amino-9H-purin-9-yl)-3,10-dihydroxy-5,12-dimercaptooctahydro-2H,7H-difuro[3,2-d:3′,2′-j][1,3,7,9]tetraoxa[2,8]diphosphacyclododecine 5,12-dioxide]: the ΔTm at 1000 µM was 2.3 °C.

Take `Nc1ncnc2c1ncn2[C@H]1O[C@H]2CO[P@@](=O)(S)O[C@@H]3[C@H](O)[C@@H](n4cnc5c(N)ncnc54)O[C@H]3CO[P@](=O)(S)O[C@@H]2[C@@H]1O` [Compound 48a, Triethylammonium (2S,3S,3aR,5R,7aS,9S,10S,10aR,12S,14aS)-2,9-bis(6-amino-9H-purin-9-yl)-3,10-dihydroxyoctahydro-2H, 7H-difuro[3,2-d: 3′,2′-j][1,3,7,9]tetraoxa[2,8]diphosphacyclododecine-5,12-bis(thiolate) 5,12-dioxide]: the ΔTm at 1000 µM is 6.6 °C.

As for `Nc1ncnc2c1ncn2[C@H]1O[C@H]2CO[P@@](=O)(S)O[C@@H]3[C@H](O)[C@@H](n4cnc5c(N)ncnc54)O[C@H]3CO[P@@](=O)(S)O[C@@H]2[C@@H]1O` [Compound 48b, triethylammonium (2S,3S,3R,5R,7aS,9S,10S,10aR,12R,14aS)-2,9-bis(6-amino-9H-purin-9-yl)-3,10-dihydroxyoctahydro-2H,7H-difuro[3,2-d: 3′,2′-j][1,3,7,9]tetraoxa[2,8]diphosphacyclododecine-5,12-bis(thiolate) 5,12-dioxide], the ΔTm at 1000 µM is 3.5 °C.

Consider `C#CCOc1nc(N)nc2c1ncn2[C@@H]1O[C@@H]2COP(=O)(O)O[C@H]3[C@@H](O)[C@H](n4cnc5c(=O)[nH]c(N)nc54)O[C@@H]3COP(=O)(O)O[C@H]2[C@H]1O` [compound 25, 2-amino-9-((2R,3R,3aS,7aR,9R,10R,10aS,14aR)-9-(2-amino-6-(prop-2-yn-1-yloxy)-9H-purin-9-yl)-3,5,10,12-tetrahydroxy-5,12-dioxidooctahydro-2H,7H-difuro[3,2-d:3′,2′-j][1,3,7,9]tetraoxa[2,8]diphosphacyclododecin-2-yl)-1,9-dihydro-6H-purin-6-one], for which the ΔTm at 1000 µM was determined as 7.2 °C.

Staying with this assay, now noted: read-out: hSTING Tm Shift HAQ.
Take `CC(C)(C)[Si](C)(C)O[C@H]1[C@H]2O[P@@](=O)(S)OC[C@H]3O[C@@H](n4cnc5c(N)ncnc54)[C@H](F)[C@@H]3O[P@](=O)(S)OC[C@H]1O[C@H]2n1cnc2c(N)ncnc21` [Compound 6a, dithio-[SP, RP]-cyclic-[3′OTBS-A(2′,5′)p-2′F-A(3′,5′)p]]: the ΔTm at 1000 µM was 20.2 °C.
